Several values for one entry are separate records, joined by “and”; a condition that tells them apart may be missing. Identical values can stand only once. Inconclusive results and toxic doses are left out.

In PubChem BioAssay AID330 (DTP/NCI, 2004) one finds T/C data, which are given here for 23 compounds.

The test system of the experiment is P388 leukemia ip, CD2F1 mice, survival T/C. As to the kind of experiment: NCI In Vivo Anticancer Drug Screen. Data for tumor model P388 Leukemia (intraperitoneal) in CD2F1 (CDF1) mice. The conditions noted are these: endpoint: median survival time, higher = longer survival. An outline of the steps: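 Mice carrying the transplanted tumor received test compound or vehicle. Survival was recorded in each group, and the value is the treated-group measurement divided by that of the vehicle-treated control group.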

[1] abbreviates: dose: 60.0 mg/kg/injection, schedule: Q01DX005 (ip), vehicle: Klucel (hydroxypropylcellulose) (HPC).
Where [2] appears, read: dose: 120.0 mg/kg/injection, schedule: Q01DX005 (ip), vehicle: Klucel (hydroxypropylcellulose) (HPC).
Setting [3] is: dose: 240.0 mg/kg/injection, schedule: Q01DX005 (ip), vehicle: Klucel (hydroxypropylcellulose) (HPC).
Where [4] appears, read: dose: 50.0 mg/kg/injection, schedule: Q01DX005 (ip), vehicle: Klucel (hydroxypropylcellulose) (HPC).
The mark [5] stands for this setting: dose: 100.0 mg/kg/injection, schedule: Q01DX005 (ip), vehicle: Klucel (hydroxypropylcellulose) (HPC).
The mark [6] stands for this setting: dose: 100.0 mg/kg/injection, schedule: Q01DX009 (ip), vehicle: saline with Tween-80.
Setting [7] is: dose: 200.0 mg/kg/injection, schedule: Q01DX009 (ip), vehicle: saline with Tween-80.
[8] abbreviates: dose: 400.0 mg/kg/injection, schedule: Q01DX009 (ip), vehicle: saline with Tween-80.
Where [9] appears, read: dose: 50.0 mg/kg/injection, schedule: Q01DX005 (ip), vehicle: saline with Tween-80.
[10] abbreviates: dose: 100.0 mg/kg/injection, schedule: Q01DX005 (ip), vehicle: saline with Tween-80.
Setting [11] is: dose: 50.0 mg/kg/injection, schedule: Q01DX009 (ip), vehicle: saline with Tween-80.
Where [12] appears, read: dose: 200.0 mg/kg/injection, schedule: Q01DX005 (ip), vehicle: saline with Tween-80.
[13] abbreviates: dose: 50.0 mg/kg/injection, schedule: Q01DX009 (ip), vehicle: saline.
Setting [14] is: dose: 100.0 mg/kg/injection, schedule: Q01DX009 (ip), vehicle: saline.
Where [15] appears, read: dose: 200.0 mg/kg/injection, schedule: Q01DX009 (ip), vehicle: saline.
Setting [16] is: dose: 12.5 mg/kg/injection, schedule: Q01DX009 (ip), vehicle: Klucel (hydroxypropylcellulose) (HPC).
The mark [17] stands for this setting: dose: 25.0 mg/kg/injection, schedule: Q01DX009 (ip), vehicle: saline.

Turning to `NC(=S)c1sc(-c2ccccc2)cc1N`, the T/C by setting is: under setting [1], 108 % of control; under setting [2], 106 % of control; under setting [3], 104 % of control.

On to `N#Cc1nnn(-c2ccc(Cl)cc2)c1N`, for which the T/C under setting [4] was 99 % of control and the T/C under setting [5] was 97 % of control.

In the case of `N#Cc1ccccc1CC(O)(c1ccccc1)c1ccccc1`, the T/C is 99 % of control under setting [6], 100 % of control under setting [7] and 91 % of control under setting [8].

Turning to `CCN1CCC(Nc2ccnc3cc(Cl)ccc23)CC1`, the T/C runs as follows: under setting [4], 99 % of control; under setting [9], 104 % of control; under setting [5], 94 % of control; under setting [10], 110 % of control.

As for `Nc1ncnc2c1ncn2CC(O)CN(CCO)CCO` (stereo not given) (tested in a mixture with another compound), the T/C runs as follows: (dose: 60.0 mg/kg/injection, schedule: Q01DX005 (ip), vehicle: saline) 93 % of control; (dose: 120.0 mg/kg/injection, schedule: Q01DX005 (ip), vehicle: saline) 95 % of control; (dose: 240.0 mg/kg/injection, schedule: Q01DX005 (ip), vehicle: saline) 94 % of control.

Regarding `COc1cccc2cc(C)[nH]c12`, the T/C is 97 % of control (dose: 25.0 mg/kg/injection, schedule: Q01DX009 (ip), vehicle: saline with Tween-80); 97 % of control under setting [11]; 103 % of control under setting [6].

With `CCCCCCCCCCCCCCCCS(=O)(=O)N/N=C(/c1ccc(OC)c(OC)c1)N1CCCCC1`, the T/C (dose: 50.0 mg/kg/injection, schedule: Q01DX009 (ip), vehicle: other) was 102 % of control; the T/C (dose: 100.0 mg/kg/injection, schedule: Q01DX009 (ip), vehicle: other) is 91 % of control; the T/C (dose: 200.0 mg/kg/injection, schedule: Q01DX009 (ip), vehicle: other) was 93 % of control.

For `Nc1ccc(NCCCC2CCCN3CCCCC23)c2c(=O)c3ccccc3sc12` (stereo not given), the T/C by setting is: (dose: 13.5 mg/kg/injection, schedule: Q01DX005 (ip), vehicle: saline with Tween-80) 104 % of control; (dose: 27.0 mg/kg/injection, schedule: Q01DX005 (ip), vehicle: saline with Tween-80) 91 % of control; (dose: 54.0 mg/kg/injection, schedule: Q01DX005 (ip), vehicle: saline with Tween-80) 101 % of control; under setting [10], 110 % of control; (dose: 108.0 mg/kg/injection, schedule: Q01DX005 (ip), vehicle: saline with Tween-80) 107 % of control; under setting [12], 120 % of control.

On to `O=S(=O)(O)O.[NH-]CC(N)=O.[NH-]CC(N)=O.[Ni+2]`, for which the T/C is 95 % of control (dose: 1.0 mg/kg/injection, schedule: Q01DX009 (ip), vehicle: saline); 90 % of control (dose: 2.0 mg/kg/injection, schedule: Q01DX009 (ip), vehicle: saline); 95 % of control (dose: 4.0 mg/kg/injection, schedule: Q01DX009 (ip), vehicle: saline); 90 % of control (dose: 8.0 mg/kg/injection, schedule: Q01DX009 (ip), vehicle: saline).

Turning to `CN(C)c1ccc(C2(c3ccc(N(C)C)cc3)c3ccccc3C(=O)N2N)cc1`, the T/C runs as follows: under setting [9], 86 % of control; under setting [10], 86 % of control.

As to `O=C(NC1C=Nc2ccc([N+](=O)[O-])cc2NC1=O)c1ccc(Cl)cc1` (stereo not given), the T/C runs as follows: under setting [1], 91 % of control; under setting [2], 93 % of control; under setting [3], 92 % of control.

In the case of `O=C(O)C(/N=N\c1nn[nH]n1)/N=N\c1ncn[nH]1` (stereo not given), the T/C is, setting by setting: (dose: 100.0 mg/kg/injection, schedule: Q04DX003 (ip), vehicle: Klucel (hydroxypropylcellulose) (HPC)) 102 % of control; (dose: 200.0 mg/kg/injection, schedule: Q04DX003 (ip), vehicle: Klucel (hydroxypropylcellulose) (HPC)) 108 % of control; (dose: 400.0 mg/kg/injection, schedule: Q04DX003 (ip), vehicle: Klucel (hydroxypropylcellulose) (HPC)) 101 % of control.

On to `CNc1c(NC)n(C)c(=O)n(C)c1=O`, for which the T/C runs as follows: under setting [11], 90 % of control; under setting [13], 109 % of control; under setting [6], 105 % of control and 97 % of control; under setting [14], 109 % of control; under setting [7], 121 % of control and 97 % of control; under setting [15], 106 % of control. The T/C under setting [8] is 100 % of control and 112 % of control.

On to `COc1ccc2c(c1[N+](=O)[O-])CC[C@@H]1[C@@H]2CC[C@]2(C)C(=O)CC[C@@H]12`, for which the T/C runs as follows: (dose: 25.0 mg/kg/injection, schedule: Q01DX005 (ip), vehicle: saline with Tween-80) 103 % of control; under setting [9], 105 % of control; under setting [10], 99 % of control; under setting [12], 86 % of control.

On to `COc1cc2c(cc1OC)C1Cc3cc(OC)c(OC)cc3[N+]1(C)CC2` (stereo not given), for which the T/C reads like this: under setting [9], 103 % of control; under setting [10], 103 % of control.

Regarding `O=C([O-])CCNC1OC(CO)C(O)C(O)C1O.O=C([O-])CCNC1OC(CO)C(O)C(O)C1O.[Pd+2]` (stereo not given), the T/C was 99 % of control (dose: 50.0 mg/kg/injection, schedule: Q01DX005 (ip), vehicle: saline); 102 % of control (dose: 100.0 mg/kg/injection, schedule: Q01DX005 (ip), vehicle: saline); 99 % of control (dose: 200.0 mg/kg/injection, schedule: Q01DX005 (ip), vehicle: saline).

As for `CCC[CH2][Sn]([CH2]CCC)([O]C(=O)CCC(C)=O)[O]C(=O)CCC(C)=O`, the T/C is 118 % of control and 119 % of control (dose: 3.12 mg/kg/injection, schedule: Q01DX009 (ip), vehicle: Klucel (hydroxypropylcellulose) (HPC)); 163 % of control under setting [16].

Turning to `C[n+]1nnn(/N=C\c2ccccc2)c1N`, the T/C runs as follows: under setting [16], 100 % of control; (dose: 25.0 mg/kg/injection, schedule: Q01DX009 (ip), vehicle: Klucel (hydroxypropylcellulose) (HPC)) 97 % of control; (dose: 50.0 mg/kg/injection, schedule: Q01DX009 (ip), vehicle: Klucel (hydroxypropylcellulose) (HPC)) 104 % of control.

As to `O=C1CSC(=S)N1c1ccc(Cl)c([N+](=O)[O-])c1`, the T/C is 101 % of control under setting [17]; 104 % of control and 111 % of control and 92 % of control under setting [13]; 99 % of control and 100 % of control under setting [14]; 117 % of control (dose: 100.0 mg/kg/injection, schedule: Q01DX009 (ip), vehicle: suspension in saline); 102 % of control and 108 % of control under setting [15]; 86 % of control (dose: 200.0 mg/kg/injection, schedule: Q01DX009 (ip), vehicle: suspension in saline).

Take `COc1ccc(C)cc1NC(=S)NC(=O)/C=C/c1ccccc1`: the T/C was 97 % of control under setting [17], 87 % of control under setting [13], 96 % of control under setting [14] and 98 % of control under setting [15].

For `O=[N+]([O-])c1cccc2c(-c3nccc4c([N+](=O)[O-])cccc34)nccc12`, the T/C by setting is: under setting [9], 87 % of control; under setting [10], 87 % of control.

As for `O=[N+]([O-])O.O=[N+]([O-])O.[NH-]C1CCCC1[NH-].[Pt+2]` (stereo not given), the T/C is 180 % of control (dose: 6.25 mg/kg/injection, schedule: Q04DX002 (ip), vehicle: saline); 180 % of control (dose: 12.5 mg/kg/injection, schedule: Q04DX002 (ip), vehicle: saline); 184 % of control (dose: 12.5 mg/kg/injection, schedule: Q04DX002 (ip), vehicle: suspension in saline); 197 % of control (dose: 25.0 mg/kg/injection, schedule: Q04DX002 (ip), vehicle: saline); 202 % of control (dose: 25.0 mg/kg/injection, schedule: Q04DX002 (ip), vehicle: suspension in saline).

For `CCCCN(CCCC)CC(O)c1cc2c(Cl)cc(Cl)cc2c2cc(C(F)(F)F)ccc12` (stereo not given), the T/C is 97 % of control under setting [11], 100 % of control under setting [6] and 100 % of control under setting [7].
